Key:
[1] = target: 5-hydroxytryptamine receptor 6 (Homo sapiens, UniProt P50406); test: Displacement of [3H]LSD from human 5-hydroxytryptamine 6 receptor expressed in HEK 293 cells; type: cell-based, HEK293
[2] = target: T1, 5-hydroxytryptamine receptor 1A (Homo sapiens) (UniProt P08908); test: In vitro binding affinity against human 5-hydroxytryptamine 1A receptor at a concentration of 100 (nM)
T1 sequence (whole entry): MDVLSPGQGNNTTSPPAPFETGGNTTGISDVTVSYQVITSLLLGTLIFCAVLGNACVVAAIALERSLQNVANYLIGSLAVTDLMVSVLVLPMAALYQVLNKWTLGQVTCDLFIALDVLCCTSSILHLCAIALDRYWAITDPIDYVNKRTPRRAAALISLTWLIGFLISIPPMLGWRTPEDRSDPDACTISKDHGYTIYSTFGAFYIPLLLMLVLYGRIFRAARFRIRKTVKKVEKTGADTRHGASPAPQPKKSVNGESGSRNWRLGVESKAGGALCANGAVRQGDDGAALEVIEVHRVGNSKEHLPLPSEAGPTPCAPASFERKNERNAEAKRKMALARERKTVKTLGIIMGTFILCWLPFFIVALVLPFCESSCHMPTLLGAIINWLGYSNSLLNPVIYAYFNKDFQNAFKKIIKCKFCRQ

[3] = target: 5-hydroxytryptamine receptor 1B (Homo sapiens) (UniProt P28222); test: In vitro binding affinity against human 5-hydroxytryptamine 1B receptor at a concentration of 100 (nM)
[4] = target: T2, 5-hydroxytryptamine receptor 1F (Homo sapiens) (UniProt P30939); test: In vitro binding affinity against human 5-hydroxytryptamine 1F receptor at a concentration of 100 (nM)
T2 sequence (whole entry): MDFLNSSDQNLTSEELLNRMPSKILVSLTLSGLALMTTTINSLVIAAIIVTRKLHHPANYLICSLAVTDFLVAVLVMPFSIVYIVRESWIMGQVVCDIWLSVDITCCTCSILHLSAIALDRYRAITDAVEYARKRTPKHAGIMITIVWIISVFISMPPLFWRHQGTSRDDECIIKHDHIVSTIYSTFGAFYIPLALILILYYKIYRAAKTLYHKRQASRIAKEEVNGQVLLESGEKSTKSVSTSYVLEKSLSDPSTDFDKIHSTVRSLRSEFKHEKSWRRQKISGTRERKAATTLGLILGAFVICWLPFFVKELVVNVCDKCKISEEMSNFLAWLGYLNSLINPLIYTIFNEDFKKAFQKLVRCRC

[5] = target: 5-hydroxytryptamine receptor 1D (Homo sapiens) (UniProt P28221); test: In vitro binding affinity against human 5-hydroxytryptamine 1D receptor at a concentration of 100 (nM)
[6] = target: 5-hydroxytryptamine receptor 2A (Homo sapiens) (UniProt P28223); test: In vitro binding affinity against human 5-hydroxytryptamine 2A receptor at a concentration of 100 (nM)
[7] = target: 5-hydroxytryptamine receptor 2B (Homo sapiens) (UniProt P41595); test: In vitro binding affinity against human 5-HT2B receptor at a concentration of 100 (nM)
[8] = target: T3, 5-hydroxytryptamine receptor 2C (Homo sapiens) (UniProt P28335); test: In vitro binding affinity against human 5-hydroxytryptamine 2C receptor at a concentration of 100 (nM)
T3 sequence (whole entry): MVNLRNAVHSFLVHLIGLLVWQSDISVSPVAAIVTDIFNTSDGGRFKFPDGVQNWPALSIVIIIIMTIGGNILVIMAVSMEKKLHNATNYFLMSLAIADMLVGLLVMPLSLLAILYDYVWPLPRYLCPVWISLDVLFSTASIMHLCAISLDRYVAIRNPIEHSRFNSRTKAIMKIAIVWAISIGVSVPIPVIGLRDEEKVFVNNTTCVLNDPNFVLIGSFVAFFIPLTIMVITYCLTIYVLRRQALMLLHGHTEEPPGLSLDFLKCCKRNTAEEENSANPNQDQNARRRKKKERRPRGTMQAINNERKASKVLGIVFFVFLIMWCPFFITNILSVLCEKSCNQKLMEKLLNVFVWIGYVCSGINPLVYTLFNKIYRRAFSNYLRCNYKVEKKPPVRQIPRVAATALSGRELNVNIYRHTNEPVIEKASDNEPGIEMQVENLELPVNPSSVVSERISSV

[9] = target: 5-hydroxytryptamine receptor 7 (Homo sapiens) (UniProt P34969); test: In vitro binding affinity against human 5-hydroxytryptamine 7 receptor at a concentration of 100 (nM)
[10] = target: Adrenergic receptor alpha-1 (Homo sapiens) (UniProt P35348+P25100+P35368); test: In vitro binding affinity against human Alpha-1 adrenergic receptor at a concentration of 100 (nM); type: protein assay
[11] = target: D(1A) dopamine receptor (Homo sapiens) (UniProt P21728); test: In vitro binding affinity against human Dopamine receptor D1 at a concentration of 100 (nM)
[12] = target: D(3) dopamine receptor (Homo sapiens) (UniProt P35462); test: In vitro binding affinity against human Dopamine receptor D3 at a concentration of 100 (nM)
[13] = target: T4, D(4) dopamine receptor (Homo sapiens) (UniProt P21917); test: In vitro binding affinity against human Dopamine receptor D4 at a concentration of 100 (nM)
T4 sequence (whole entry): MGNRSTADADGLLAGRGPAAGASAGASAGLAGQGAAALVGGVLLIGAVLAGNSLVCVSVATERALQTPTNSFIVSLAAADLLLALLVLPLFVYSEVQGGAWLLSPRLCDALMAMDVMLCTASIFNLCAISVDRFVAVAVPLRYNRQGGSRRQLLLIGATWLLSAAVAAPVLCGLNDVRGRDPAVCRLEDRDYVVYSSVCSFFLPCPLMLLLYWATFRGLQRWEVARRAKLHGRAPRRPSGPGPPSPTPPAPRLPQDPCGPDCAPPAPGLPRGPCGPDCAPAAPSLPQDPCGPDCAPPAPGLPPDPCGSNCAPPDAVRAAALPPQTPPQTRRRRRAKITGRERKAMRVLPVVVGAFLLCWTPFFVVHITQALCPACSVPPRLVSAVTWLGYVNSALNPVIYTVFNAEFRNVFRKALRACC

[14] = target: D(1B) dopamine receptor (Homo sapiens) (UniProt P21918); test: In vitro binding affinity against human D5 receptor at a concentration of 100 (nM)
[15] = target: Muscarinic acetylcholine receptors; M1 & M2 (Homo sapiens) (UniProt P11229+P08172); test: In vitro binding affinity against human Muscarinic acetylcholine receptor M1- Muscarinic acetylcholine receptor M2 at a concentration of 100 (nM); type: protein assay
[16] = target: D(2) dopamine receptor (Homo sapiens) (UniProt P14416); test: In vitro binding affinity against human Dopamine receptor D2 at a concentration of 100 (nM)
D(2) dopamine receptor (Homo sapiens), sequence (P14416 whole entry): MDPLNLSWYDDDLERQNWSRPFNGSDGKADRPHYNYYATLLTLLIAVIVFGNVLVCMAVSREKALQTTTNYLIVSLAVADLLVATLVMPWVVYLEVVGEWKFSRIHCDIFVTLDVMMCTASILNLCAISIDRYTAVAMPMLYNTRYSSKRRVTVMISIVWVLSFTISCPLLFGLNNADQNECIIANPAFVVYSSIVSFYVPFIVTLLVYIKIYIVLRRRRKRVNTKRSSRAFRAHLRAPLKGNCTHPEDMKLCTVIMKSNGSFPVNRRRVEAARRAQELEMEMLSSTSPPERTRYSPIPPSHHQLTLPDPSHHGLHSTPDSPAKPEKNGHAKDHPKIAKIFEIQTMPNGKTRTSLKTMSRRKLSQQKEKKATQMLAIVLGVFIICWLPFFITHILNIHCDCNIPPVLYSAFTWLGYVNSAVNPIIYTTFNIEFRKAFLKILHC

5-hydroxytryptamine receptor 6, sequence (P50406 whole entry): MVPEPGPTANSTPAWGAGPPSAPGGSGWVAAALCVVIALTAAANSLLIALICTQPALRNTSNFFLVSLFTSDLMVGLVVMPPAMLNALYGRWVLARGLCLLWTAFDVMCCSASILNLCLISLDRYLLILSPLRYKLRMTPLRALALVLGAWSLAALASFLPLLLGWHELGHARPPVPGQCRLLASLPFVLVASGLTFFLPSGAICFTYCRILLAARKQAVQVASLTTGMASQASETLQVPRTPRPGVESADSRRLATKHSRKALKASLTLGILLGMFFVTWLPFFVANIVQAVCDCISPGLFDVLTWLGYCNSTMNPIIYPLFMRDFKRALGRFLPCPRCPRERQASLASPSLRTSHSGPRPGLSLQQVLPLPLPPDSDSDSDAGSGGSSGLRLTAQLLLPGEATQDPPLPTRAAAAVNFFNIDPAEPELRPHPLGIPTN
D(1A) dopamine receptor (Homo sapiens), sequence (P21728 whole entry): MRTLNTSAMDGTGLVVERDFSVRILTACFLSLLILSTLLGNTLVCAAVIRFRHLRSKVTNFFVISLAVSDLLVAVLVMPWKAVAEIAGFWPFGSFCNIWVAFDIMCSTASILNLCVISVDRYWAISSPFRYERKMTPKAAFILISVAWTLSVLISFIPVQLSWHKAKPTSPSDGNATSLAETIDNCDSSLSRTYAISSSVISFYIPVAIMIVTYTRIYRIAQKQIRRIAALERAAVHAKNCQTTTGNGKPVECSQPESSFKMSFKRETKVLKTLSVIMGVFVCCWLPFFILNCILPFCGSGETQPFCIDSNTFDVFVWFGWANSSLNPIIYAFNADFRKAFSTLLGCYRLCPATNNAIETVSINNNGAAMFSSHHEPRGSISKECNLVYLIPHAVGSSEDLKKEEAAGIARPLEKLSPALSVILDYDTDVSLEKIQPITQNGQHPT
D(3) dopamine receptor (Homo sapiens), sequence (P35462 whole entry): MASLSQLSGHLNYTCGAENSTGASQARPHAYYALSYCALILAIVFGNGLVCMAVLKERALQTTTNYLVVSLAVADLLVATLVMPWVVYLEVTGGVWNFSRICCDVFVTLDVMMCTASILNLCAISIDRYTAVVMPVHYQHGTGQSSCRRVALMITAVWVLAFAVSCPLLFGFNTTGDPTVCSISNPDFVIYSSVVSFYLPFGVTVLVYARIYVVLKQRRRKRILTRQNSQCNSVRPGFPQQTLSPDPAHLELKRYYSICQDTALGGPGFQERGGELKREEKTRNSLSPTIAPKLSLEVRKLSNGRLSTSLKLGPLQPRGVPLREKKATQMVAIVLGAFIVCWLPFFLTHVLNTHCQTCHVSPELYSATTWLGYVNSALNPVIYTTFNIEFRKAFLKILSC
5-hydroxytryptamine receptor 2A (Homo sapiens), sequence (P28223 whole entry): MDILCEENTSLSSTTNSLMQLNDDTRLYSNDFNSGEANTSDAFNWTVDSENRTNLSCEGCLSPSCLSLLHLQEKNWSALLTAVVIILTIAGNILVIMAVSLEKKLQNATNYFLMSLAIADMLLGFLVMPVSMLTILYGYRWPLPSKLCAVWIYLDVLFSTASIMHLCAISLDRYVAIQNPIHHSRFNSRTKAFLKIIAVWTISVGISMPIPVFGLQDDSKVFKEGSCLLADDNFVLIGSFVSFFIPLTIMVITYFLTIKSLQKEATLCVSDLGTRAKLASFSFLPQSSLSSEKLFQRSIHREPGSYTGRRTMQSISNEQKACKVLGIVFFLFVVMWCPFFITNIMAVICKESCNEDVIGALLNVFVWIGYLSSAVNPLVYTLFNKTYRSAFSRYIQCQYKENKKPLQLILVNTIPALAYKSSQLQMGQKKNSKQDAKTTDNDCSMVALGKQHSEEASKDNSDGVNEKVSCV
D(1B) dopamine receptor (Homo sapiens), sequence (P21918 whole entry): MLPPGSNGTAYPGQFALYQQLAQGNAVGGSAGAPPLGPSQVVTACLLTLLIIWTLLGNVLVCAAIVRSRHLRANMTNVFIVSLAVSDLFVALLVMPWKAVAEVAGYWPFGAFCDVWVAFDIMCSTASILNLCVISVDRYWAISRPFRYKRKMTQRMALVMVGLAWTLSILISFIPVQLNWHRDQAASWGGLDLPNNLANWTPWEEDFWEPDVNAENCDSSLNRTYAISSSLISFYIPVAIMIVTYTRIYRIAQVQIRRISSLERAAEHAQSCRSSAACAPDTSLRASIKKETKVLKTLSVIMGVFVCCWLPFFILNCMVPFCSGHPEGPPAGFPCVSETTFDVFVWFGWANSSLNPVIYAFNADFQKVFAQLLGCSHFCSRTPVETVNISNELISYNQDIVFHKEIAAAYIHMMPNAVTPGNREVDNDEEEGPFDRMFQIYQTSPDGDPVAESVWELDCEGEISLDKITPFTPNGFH
5-hydroxytryptamine receptor 1D (Homo sapiens), sequence (P28221 whole entry): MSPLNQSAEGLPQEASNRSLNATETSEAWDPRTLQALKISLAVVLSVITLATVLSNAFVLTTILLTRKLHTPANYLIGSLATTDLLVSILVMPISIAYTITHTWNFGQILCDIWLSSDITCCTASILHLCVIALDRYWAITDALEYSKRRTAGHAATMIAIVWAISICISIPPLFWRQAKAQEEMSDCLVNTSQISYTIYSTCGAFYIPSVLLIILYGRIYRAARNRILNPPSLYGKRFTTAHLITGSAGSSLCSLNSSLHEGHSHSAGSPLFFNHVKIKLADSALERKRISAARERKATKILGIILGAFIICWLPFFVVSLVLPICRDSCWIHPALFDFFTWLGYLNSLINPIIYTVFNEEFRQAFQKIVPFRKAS
5-hydroxytryptamine receptor 7 (Homo sapiens), sequence (P34969 whole entry): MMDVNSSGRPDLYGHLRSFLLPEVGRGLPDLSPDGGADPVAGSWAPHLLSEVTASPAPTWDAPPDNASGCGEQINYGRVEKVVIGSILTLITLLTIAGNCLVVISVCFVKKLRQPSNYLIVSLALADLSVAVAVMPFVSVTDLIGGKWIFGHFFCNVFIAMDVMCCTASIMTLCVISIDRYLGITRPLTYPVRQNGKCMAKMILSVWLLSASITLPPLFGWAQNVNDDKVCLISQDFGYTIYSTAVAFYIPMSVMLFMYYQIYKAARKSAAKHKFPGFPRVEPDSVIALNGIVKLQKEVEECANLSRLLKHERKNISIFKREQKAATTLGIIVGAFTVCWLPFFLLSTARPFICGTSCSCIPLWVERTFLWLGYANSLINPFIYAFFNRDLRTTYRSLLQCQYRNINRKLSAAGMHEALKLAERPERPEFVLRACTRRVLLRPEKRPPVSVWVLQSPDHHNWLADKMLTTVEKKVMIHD
5-hydroxytryptamine receptor 2B (Homo sapiens), sequence (P41595 whole entry): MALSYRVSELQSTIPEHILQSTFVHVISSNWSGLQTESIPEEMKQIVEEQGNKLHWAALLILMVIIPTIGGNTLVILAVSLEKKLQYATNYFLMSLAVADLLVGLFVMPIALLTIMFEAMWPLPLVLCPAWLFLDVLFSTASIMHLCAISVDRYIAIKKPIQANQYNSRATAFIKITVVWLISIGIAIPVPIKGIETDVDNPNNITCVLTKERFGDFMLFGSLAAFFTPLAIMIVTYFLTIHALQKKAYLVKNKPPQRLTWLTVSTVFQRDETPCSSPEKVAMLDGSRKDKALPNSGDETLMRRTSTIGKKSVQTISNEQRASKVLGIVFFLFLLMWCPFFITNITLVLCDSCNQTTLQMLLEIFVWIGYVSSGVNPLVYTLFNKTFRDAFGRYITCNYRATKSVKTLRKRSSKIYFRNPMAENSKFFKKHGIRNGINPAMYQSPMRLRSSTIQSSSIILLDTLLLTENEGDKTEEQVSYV
5-hydroxytryptamine receptor 1B (Homo sapiens), sequence (P28222 whole entry): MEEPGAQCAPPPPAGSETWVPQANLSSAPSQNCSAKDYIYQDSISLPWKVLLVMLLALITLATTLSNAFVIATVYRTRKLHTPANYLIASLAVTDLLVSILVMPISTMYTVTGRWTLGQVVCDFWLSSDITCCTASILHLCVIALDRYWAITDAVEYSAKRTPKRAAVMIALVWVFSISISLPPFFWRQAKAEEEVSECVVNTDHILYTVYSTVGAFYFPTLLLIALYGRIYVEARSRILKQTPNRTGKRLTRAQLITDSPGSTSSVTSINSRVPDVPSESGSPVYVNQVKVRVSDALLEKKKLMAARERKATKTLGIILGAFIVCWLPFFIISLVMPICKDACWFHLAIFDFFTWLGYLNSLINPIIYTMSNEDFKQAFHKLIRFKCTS

O=S(=O)(c1cccc2ccccc12)n1ccc2ccc(C3=CCN4CCCC4C3)cc21 (centres undefined) showed a Ki [1] of 1.3 nM.

O=S(=O)(c1cccc2ccccc12)n1ccc2ccc(N3CCN4CCCCC4C3)cc21 (centres undefined) showed a Ki [1] of 1.7 nM.

In the case of O=S(=O)(c1ccccc1)n1ccc2ccc(N3CCN4CCCCC4C3)cc21 (centres undefined), the Ki [1] is reported as 5.7 nM.

Molecule O=S(=O)(c1cccc2ccccc12)n1ccc2ccc(C3CCN4CCCC4C3)cc21 (single isomer, unassigned; less polar) has a Ki [1] of 0.6 nM.

Work on O=S(=O)(c1cccc2ccccc12)n1ccc2ccc(N3CCN4CCCC4C3)cc21 (centres undefined) yielded an inhibition [2] of 79%, an inhibition [3] of 2% and an inhibition [4] of 9%. It also gave an inhibition [5] of 5%, an inhibition [6] of 32% and an inhibition [7] of 36%. For the same molecule, the inhibition [8] was 17%, the inhibition [9] was 8% and the inhibition [10] was 0%. The inhibition [11] was 1%, the inhibition [12] was 22% and the inhibition [13] was 0%. It also gave an inhibition [14] of 0%, an inhibition [15] of 0% and an inhibition [16] of 7%.

Work on O=S(=O)(c1ccc2ccccc2c1)n1ccc2ccc(N3CCN4CCCCC4C3)cc21 (centres undefined) yielded a Ki [1] of 3 nM.

In the case of Cc1ccc(S(=O)(=O)n2ccc3ccc(N4CCN5CCCCC5C4)cc32)cc1 (centres undefined), the Ki [1] is reported as 4.9 nM.

O=S(=O)(c1ccc(F)cc1F)n1ccc2ccc(N3CCN4CCCCC4C3)cc21 (centres undefined) showed a Ki [1] of 3.6 nM.

For Cc1ccc(S(=O)(=O)n2ccc3ccc(N4CCN5CCCC5C4)cc32)cc1 (centres undefined), the Ki [1] was 3.3 nM.

O=S(=O)(c1cccc2ccccc12)n1ccc2ccc(C3(O)CCN4CCCC4C3)cc21 (centres undefined) gave a Ki [1] of 4.7 nM.

From ChEMBL document CHEMBL1133256, “6-Bicyclopiperazinyl-1-arylsulfonylindoles and 6-bicyclopiperidinyl-1-arylsulfonylindoles derivatives as novel, potent, and selective 5-HT6 receptor antagonists” (Bioorg Med Chem Lett, 2000)
